Measured values from PubChem BioAssay (NCI).
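Growth conditions: 96-well plates. Treatment: test compound, 48 hours, 5 concentrations. Analysis: linear interpolation between bracketing concentrations; unreached endpoints set to highest concentration. Abbreviation: GI50, concentration required for 50% inhibition of growth. TGI denotes the concentration required for complete inhibition of growth.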

Columns and labels:
Assay in all cases: NCI-60 cell line screen, 48 h
SF-539 CNS = test system: SF-539 CNS
HOP-62 NSCLC = test system: HOP-62 NSCLC
SN12C renal = test system: SN12C renal
RXF 393 renal = test system: RXF 393 renal
SF-295 CNS = test system: SF-295 CNS
ACHN renal = test system: ACHN renal
MALME-3M melanoma = test system: MALME-3M melanoma
M14 melanoma = test system: M14 melanoma
HCT-15 colon = test system: HCT-15 colon
EKVX NSCLC = test system: EKVX NSCLC

Row | SMILES | TGI (SF-539 CNS) [µM] | TGI (HOP-62 NSCLC) [µM] | TGI (SN12C renal) [µM] | TGI (RXF 393 renal) [µM] | TGI (SF-295 CNS) [µM] | TGI (ACHN renal) [µM] | TGI (MALME-3M melanoma) [µM] | TGI (M14 melanoma) [µM] | TGI (HCT-15 colon) [µM] | TGI (EKVX NSCLC) [µM] | GI50 (SF-539 CNS) [µM] | GI50 (HOP-62 NSCLC) [µM] | GI50 (SN12C renal) [µM] | GI50 (RXF 393 renal) [µM] | GI50 (SF-295 CNS) [µM] | GI50 (ACHN renal) [µM] | GI50 (MALME-3M melanoma) [µM] | GI50 (M14 melanoma) [µM] | GI50 (HCT-15 colon) [µM] | GI50 (EKVX NSCLC) [µM]
1 | Cc1cc(Cl)ccc1N1C(=O)C(=O)C(c2nc3ccccc3s2)/C(=N\NC(=O)c2ccccc2O)C1=O (stereo not given) | > 100 | > 100 | > 100 | > 100 | > 100 | > 100 | > 100 | > 100 | > 100 | > 100 | – | – | – | – | – | – | – | – | – | –
2 | CN(C)c1ccc2c(SCC(=O)OCC(=O)[C@@]3(O)CC[C@H]4[C@@H]5CCC6=CC(=O)C=C[C@]6(C)[C@H]5C(=O)C[C@@]43C)c3ccc(N(C)C)cc3nc2c1 | > 56.3 | > 100 | > 59.3 | > 57 | > 100 | 20 | > 100 | > 100 | 32.1 | > 81.2 | – | – | – | – | – | – | – | – | – | –
3 | CCCCCCCCCCSS(=O)(=O)c1ccc(C)cc1 | 3.67 | 40.1 | 25.1 | 32.4 | 18.1 | 31 | 31.3 | 25 | 28.2 | 27 | – | – | – | – | – | – | – | – | – | –
4 | CC(C)(C)OC(=O)N(CCCn1c2c(c3ccccc3c1=O)C(=O)c1ccccc1-2)CCN(CCCn1c2c(c3ccccc3c1=O)C(=O)c1ccccc1-2)C(=O)OC(C)(C)C | > 50 | > 50 | > 50 | > 50 | > 50 | 48.9 | > 50 | > 50 | > 50 | > 50 | > 50 | 19.8 | 39.9 | 12.6 | 14 | 11.2 | > 50 | > 50 | 24.2 | > 50
5 | CO/N=C(\COc1ccc2c(=O)cc(-c3ccccc3)oc2c1)c1ccc(OC)cc1 | > 100 | > 100 | > 100 | > 100 | 46.5 | > 100 | > 100 | > 100 | > 100 | > 100 | > 100 | > 100 | 88.2 | > 100 | 21 | > 100 | > 100 | > 100 | > 100 | > 100
6 | COC(=O)/C1=C/C2CC(/C=C(/c3ccccc3)C(=O)O1)C2 | 89.8 | 95 | 64.3 | 78 | > 100 | 96.5 | 54.2 | > 100 | 53.1 | > 100 | – | – | – | – | – | – | – | – | – | –
7 | O=C(O)C1(C(=O)O)CCN(S(=O)(=O)c2ccccc2)CC1 | > 100 | > 100 | > 100 | > 100 | > 100 | > 100 | > 100 | > 100 | > 100 | > 100 | – | – | – | – | – | – | – | – | – | –
8 | CC(C)c1cccc2sc(NC(=O)C(=O)CC(=O)c3ccc(F)cc3)nc12 | > 100 | > 100 | > 100 | > 100 | > 100 | > 100 | > 100 | > 100 | > 100 | > 100 | – | – | – | – | – | – | – | – | – | –
9 | CCC1(c2ccncc2)CCC(=O)NC1=O (stereo not given) | > 100 | > 100 | > 100 | > 100 | > 100 | > 100 | > 100 | > 100 | > 100 | > 100 | – | – | – | – | – | – | – | – | – | –
10 | CC(=O)[CH-]C(=O)c1ccccc1.CC(=O)[CH-]C(=O)c1ccccc1.CC(C)CCCC(C)[C@H]1CCC2[C@@H]3CCC4C[C@@H]([O-])CC[C@]4(C)C3CC[C@@]21C.CC(C)CCCC(C)[C@H]1CCC2[C@@H]3CCC4C[C@@H]([O-])CC[C@]4(C)C3CC[C@@]21C.Cl.[Ti+4] (stereo not given in full) | > 25 | > 25 | > 25 | > 25 | > 25 | > 25 | > 25 | > 25 | > 25 | > 25 | > 25 | > 25 | > 25 | > 25 | > 25 | > 25 | 8.93 | > 25 | > 25 | > 25
11 | CCC1N2CCCCC2[C@@H]2c3[nH]c4ccccc4c3CCN12 (stereo not given in full) | > 100 | > 100 | > 100 | > 100 | > 100 | > 100 | > 100 | > 100 | > 100 | > 100 | – | – | – | – | – | – | – | – | – | –
12 | O=C(O/N=C1/CCC/C1=C\c1ccccc1)c1ccc(Cl)cc1 | > 62.2 | > 89.6 | > 100 | > 31.6 | > 100 | > 100 | > 100 | > 100 | > 100 | > 100 | – | – | – | – | – | – | – | – | – | –
13 | C[C@]1(O)CC(=O)[C@]2(O)C3=C(C=C[C@]2(O)C1)C(=O)c1c(O)cccc1C3=O | 17 | 42.6 | 3.18 | 2.85 | 34.4 | 1.73 | 1.84 | 3.45 | 3.08 | 23.8 | 4.67 | 15.6 | 1.72 | 1.46 | 18.3 | 0.5 | 0.492 | 1.7 | 1.19 | 11.6
14 | COc1ccc(OC)c(-c2cn3nc(-c4c[nH]c5ccc(Br)cc45)sc3n2)c1 | 3.41 | 13.3 | 10 | 8.82 | 16.3 | 6.49 | 4.93 | 4.75 | 5.47 | 11.4 | 1.78 | 2.7 | 2.74 | 3.19 | 4.7 | 2.02 | 2.25 | 2.1 | 2.11 | 2.83
15 | CCCCn1c(=O)c(/C=C/C(=O)/C=C/c2ccc(O)c(OC)c2)cc2ccc(Cl)cc21 | 3.18 | 4.17 | 4.17 | 3.25 | 10.3 | 2.95 | 4.92 | 4.17 | 5.94 | 4.58 | 1.62 | 1.81 | 1.91 | 1.66 | 2.75 | 1.6 | 2.14 | 1.86 | 1.9 | 2.18
16 | O=S(O)CCCCSSCCCCS(=O)(O)=S | > 100 | > 100 | > 100 | > 100 | > 100 | > 100 | > 100 | 32.1 | > 100 | 88.6 | – | – | – | – | – | – | – | – | – | –
17 | COc1ccc(-n2nc(C)c3c(Nc4ccc(NC(=O)Nc5cc(C(F)(F)F)ccc5F)cc4)ncnc32)cc1 | 4.87 | 11.4 | 42.9 | 2.82 | 4.43 | 42.9 | 4.06 | 4.64 | 6.31 | 5.88 | 1.94 | 2.97 | 2.96 | 1.09 | 2.06 | 2.92 | 1.76 | 1.9 | 2.3 | 2.25
